Laboratory results taken from patent publication US12187684B2, “Benzimidazole derivatives as modulators of retinoid-related orphan receptor gamma (RORγ) and pharmaceutical use thereof” (Jiangsu Hengrui Medicine Co., Ltd., priority 2018, dated 2025).

What was measured:
RORγ LBD-GST tagged = molecular target: T1, RORγ LBD-GST tagged (Homo sapiens, UniProt P51449); assay: LanthaScreen TR-FRET RORγ coactivator assay; type: biochemical; conditions: Fluorescein-D22 coactivator peptide, 1 hour room temperature
T1 construct: RORγ LBD-GST tagged (Cat No. RORC-114H, Creative Biomart); purchased Creative Biomart RORC-114H
T1 sequence (P51449 269-508 limits assumed): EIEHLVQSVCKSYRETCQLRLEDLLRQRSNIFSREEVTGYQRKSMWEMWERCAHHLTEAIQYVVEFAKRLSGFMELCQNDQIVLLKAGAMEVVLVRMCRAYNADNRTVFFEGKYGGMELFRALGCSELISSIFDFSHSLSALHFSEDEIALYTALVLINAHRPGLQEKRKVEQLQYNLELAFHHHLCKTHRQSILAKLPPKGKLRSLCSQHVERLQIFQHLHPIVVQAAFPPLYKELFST
Summary of the method: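 GST-tagged RORγ LBD (25 ng/reaction) was incubated in coregulator buffer D with 5 mM DTT and compound (top 3 μM, 7-fold steps, 7 doses), then with a mix containing 0.6 μM fluorescein-D22 peptide and 8 nM Tb anti-GST antibody. After 1 h at room temperature in the dark, 520/495 nm TR-FRET was read. IC50 came from log concentration versus percent inhibition.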

[1] = tested on: IL-17 production, human PBMC cells; assay: IL-17 production assay using human PBMC; type: cell-based; conditions: Homo sapiens, PBMC, 72 h, human PBMC stimulated by cytostim for 3 days, IL-17 ELISA of supernatant
Summary of the method: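 Cryopreserved human PBMCs, 1×10^5 per well in TexMACS, were treated with compound or vehicle (<0.5% DMSO) and stimulated with Cytostim (10 μL/mL) for 3 days at 37 °C. Supernatant IL-17 was measured by ELISA. IC50 was taken from concentration versus percent inhibition.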

| SMILES | IC50 (RORγ LBD-GST tagged) [µM] | IC50 [1] [µM] |
| --- | --- | --- |
| CC(C)Oc1ccccc1-c1cc2nc(C(CO)c3ccc(S(=O)(=O)CC4CC4)cc3)[nH]c2cc1Cl (centres unmarked) [Example 124, 2-(6-chloro-5-(2-isopropoxyphenyl)-1H-benzo[d]imidazol-2-yl)-2-(4-((cyclopropylmethyl)sulfonyl)phenyl)ethanol] | 0.205 | 0.032 |
| CCS(=O)(=O)c1ccc(Cc2nc3c(Cl)c(N4CCC(F)(F)CC4)c(Cl)cc3[nH]2)cc1 [Example 125, 4,6-dichloro-5-(4,4-difluoropiperidin-1-yl)-2-(4-(ethylsulfonyl)benzyl)-1H-benzo[d]imidazole] | 0.059 | 0.047 |
| CCS(=O)(=O)c1ccc(C(CO)c2nc3cc(Cl)c(N4CCC(F)(F)CC4)c(Cl)c3[nH]2)cc1 (centres unmarked) [Example 126, 2-(5,7-dichloro-6-(4,4-difluoropiperidin-1-yl)-1H-benzo[d]imidazol-2-yl)-2-(4-(ethylsulfonyl)phenyl)ethanol] | 0.135 | 0.008 |
| NCC(c1ccc(S(=O)(=O)CC2CC2)cc1)c1nc2ccc(-c3ccccc3OC(F)F)c(Cl)c2[nH]1 (centres unmarked) [Example 128, 2-(7-chloro-6-(2-(difluoromethoxy)phenyl)-1H-benzo[d]imidazol-2-yl)-2-(4-((cyclopropylmethyl)sulfonyl)phenyl)ethanamine] | 0.006 | 0.091 |
| CC(C)Oc1ccccc1-c1c(Cl)cc2nc(C(O)c3ccc(S(=O)(=O)CC4CC4)cc3)[nH]c2c1Cl (centres unmarked) [Example 133, (4-((cyclopropylmethyl)sulfonyl)phenyl)(5,7-dichloro-6-(2-isopropoxyphenyl)-1H-benzo[d]imidazol-2-yl)methanol] | 0.024 | 0.027 |
| COc1ccccc1-c1c(Cl)cc2nc(C(CO)c3ccc(S(=O)(=O)CC4CC4)cc3)[nH]c2c1Cl (centres unmarked) [Example 135, 2-(4-((cyclopropylmethyl)sulfonyl)phenyl)-2-(5,7-dichloro-6-(2-methoxyphenyl)-1H-benzo[d]imidazol-2-yl)ethanol] | 0.039 | 0.014 |
| CCOc1ccccc1-c1c(Cl)cc2nc(Cc3ccc(S(=O)(=O)CC4CC4)cc3)[nH]c2c1Cl [Example 136, 5,7-dichloro-2-(4-((cyclopropylmethyl)sulfonyl)benzyl)-6-(2-ethoxyphenyl)-1H-benzo[d]imidazole] | 0.005 | 0.014 |
| CCOc1ccccc1-c1c(Cl)cc2nc(C(CO)c3ccc(S(=O)(=O)CC4CC4)cc3)[nH]c2c1Cl (centres unmarked) [Example 137, 2-(4-((cyclopropylmethyl)sulfonyl)phenyl)-2-(5,7-dichloro-6-(2-ethoxyphenyl)-1H-benzo[d]imidazol-2-yl)ethanol] | 0.013 | 0.004 |
| NC(=O)CC(c1ccc(S(=O)(=O)CC2CC2)cc1)c1nc2cc(Cl)c(-c3ccccc3OC(F)F)cc2[nH]1 (centres unmarked) [Example 141, 3-(5-chloro-6-(2-(difluoromethoxy)phenyl)-1H-benzo[d]imidazol-2-yl)-3-(4-((cyclopropylmethyl)sulfonyl)phenyl)propanamide] | 0.01 | 0.02 |
| CC(C)Oc1ccccc1-c1cc2nc(C(CCO)c3ccc(S(=O)(=O)CC4CC4)cc3)[nH]c2cc1Cl (centres unmarked) [Example 144, 3-(5-chloro-6-(2-isopropoxyphenyl)-1H-benzo[d]imidazol-2-yl)-3-(4-((cyclopropylmethyl)sulfonyl)phenyl)propan-1-ol] | 0.011 | 0.023 |
| NC(=O)CC(c1ccc(S(=O)(=O)CC2CC2)cc1)c1nc2cc(Cl)c(N3CCC(F)(F)CC3)c(Cl)c2[nH]1 (centres unmarked) [Example 154, 3-(4-((cyclopropylmethyl)sulfonyl)phenyl)-3-(5,7-dichloro-6-(4,4-difluoropiperidin-1-yl)-1H-benzo[d]imidazol-2-yl)propanamide] | 0.049 | 0.077 |
| NC(=O)CC(c1ccc(S(=O)(=O)CC2CC2)cc1)c1nc2cc(Cl)c(-c3ccccc3OC(F)F)c(Cl)c2[nH]1 (centres unmarked) [Example 158, 3-(4-((cyclopropylmethyl)sulfonyl)phenyl)-3-(5,7-dichloro-6-(2-(difluoromethoxy)phenyl)-1H-benzo[d]imidazol-2-yl)propanamide] | 0.005 | 0.187 |

Continued by falling IC50 (RORγ LBD-GST tagged), values first:

| IC50 (RORγ LBD-GST tagged) [µM] | SMILES | IC50 [1] [µM] |
| --- | --- | --- |
| 0.71 | O=S(=O)(CC1CC1)c1ccc(C(CCN2CCOCC2)c2nc3cc(Cl)c(N4CCC(F)(F)CC4)c(Cl)c3[nH]2)cc1 (centres unmarked) [Example 170, 4-(3-(4-((cyclopropylmethyl)sulfonyl)phenyl)-3-(5,7-dichloro-6-(4,4-difluoropiperidin-1-yl)-1H-benzo[d]imidazol-2-yl)propyl)morpholine] | 0.43 |
| 0.22 | O=S(=O)(CC1CC1)c1ccc(Cc2nc3cc(Cl)c(N4CCC(F)(F)CC4)c(Cl)c3[nH]2)cc1 [Example 127, 5,7-dichloro-2-(4-((cyclopropylmethyl)sulfonyl)benzyl)-6-(4,4-difluoropiperidin-1-yl)-1H-benzo[d]imidazole] | 0.013 |
| 0.068 | CCS(=O)(=O)c1ccc(C(CCO)c2nc3c(Cl)c(N4CCC(F)(F)CC4)c(Cl)cc3[nH]2)cc1 (centres unmarked) [Example 145, 3-(4,6-dichloro-5-(4,4-difluoropiperidin-1-yl)-1H-benzo[d]imidazol-2-yl)-3-(4-(ethylsulfonyl)phenyl)propan-1-ol] | 0.01 |
| 0.018 | CCOc1ccccc1-c1c(Cl)cc2nc(C(O)c3ccc(S(=O)(=O)CC4CC4)cc3)[nH]c2c1Cl (centres unmarked) [Example 138, (4-((cyclopropylmethyl)sulfonyl)phenyl)(5,7-dichloro-6-(2-ethoxyphenyl)-1H-benzo[d]imidazol-2-yl)methanol] | 0.009 |
| 0.014 | CC(=O)NCC(c1ccc(S(=O)(=O)CC2CC2)cc1)c1nc2cc(Cl)c(-c3ccccc3OC(F)F)cc2[nH]1 (centres unmarked) [Example 129, N-(2-(5-chloro-6-(2-(difluoromethoxy)phenyl)-1H-benzo[d]imidazol-2-yl)-2-(4-((cyclopropylmethyl)sulfonyl)phenyl)ethyl)acetamide] | 0.242 |
| 0.013 | O=S(=O)(CC1CC1)c1ccc(C(CCO)c2nc3cc(Cl)c(-c4ccccc4OC(F)F)cc3[nH]2)cc1 (centres unmarked) [Example 142, 3-(5-chloro-6-(2-(difluoromethoxy)phenyl)-1H-benzo[d]imidazol-2-yl)-3-(4-((cyclopropylmethyl)sulfonyl)phenyl)propan-1-ol] | 0.028 |
| 0.01 | CC(C)Oc1ccccc1-c1cc2nc(C(CC(N)=O)c3ccc(S(=O)(=O)CC4CC4)cc3)[nH]c2cc1Cl (centres unmarked) [Example 143, 3-(5-chloro-6-(2-isopropoxyphenyl)-1H-benzo[d]imidazol-2-yl)-3-(4-((cyclopropylmethyl)sulfonyl)phenyl)propanamide] | 0.027 |
| 0.007 | O=S(=O)(CC1CC1)c1ccc(C(CCO)c2nc3cc(Cl)c(N4CCC(F)(F)CC4)c(Cl)c3[nH]2)cc1 (centres unmarked) [Example 157, 3-(4-((cyclopropylmethyl)sulfonyl)phenyl)-3-(5,7-dichloro-6-(4,4-difluoropiperidin-1-yl)-1H-benzo[d]imidazol-2-yl)propan-1-ol] | 0.022 |
| 0.006 | CC(C)Oc1ccccc1-c1c(Cl)cc2nc(C(CO)c3ccc(S(=O)(=O)CC4CC4)cc3)[nH]c2c1Cl (centres unmarked) [Example 134, 2-(4-((cyclopropylmethyl)sulfonyl)phenyl)-2-(5,7-dichloro-6-(2-isopropoxyphenyl)-1H-benzo[d]imidazol-2-yl)ethanol] | 0.003 |
| 0.005 | O=S(=O)(CC1CC1)c1ccc(C(CCO)c2nc3cc(Cl)c(-c4ccccc4OC(F)F)c(Cl)c3[nH]2)cc1 (centres unmarked) [Example 159, 3-(4-((cyclopropylmethyl)sulfonyl)phenyl)-3-(5,7-dichloro-6-(2-(difluoromethoxy)phenyl)-1H-benzo[d]imidazol-2-yl)propan-1-ol] | 0.01 |
